SMILES strings stand for the structures. pIC50, pKi: −log10 of the molar value. In brackets after ≈: the same amount, converted by molar mass.

The values that follow come from ChEMBL document CHEMBL5137025, “Tuberculosis Drug Discovery: Challenges and New Horizons” (J Med Chem, 2022).

A short description of data set [1]: Kinetic aqueous solubility of the compound incubated for 4.5 hrs by LC-MS/MS analysis. It is filed as physicochemical. The note with it: buffer, read-out: Kinetic_solubility.
Data set [2] in a line: Stability in mouse liver microsome assessed as half life by Reverse-phase HPLC analysis. It is filed as ADME. The note with it: liver microsomes. (In general: Microsomes from liver hold many membrane-bound enzymes, among them those of drug oxidation.)
In data set [3] the test system is HepG2. Briefly: Cytotoxicity against human HepG2 cells. It is filed as functional.
In data set [4] the target is T1, Voltage-gated inwardly rectifying potassium channel KCNH2 (Homo sapiens, UniProt Q12809).
T1 sequence (Q12809 whole entry): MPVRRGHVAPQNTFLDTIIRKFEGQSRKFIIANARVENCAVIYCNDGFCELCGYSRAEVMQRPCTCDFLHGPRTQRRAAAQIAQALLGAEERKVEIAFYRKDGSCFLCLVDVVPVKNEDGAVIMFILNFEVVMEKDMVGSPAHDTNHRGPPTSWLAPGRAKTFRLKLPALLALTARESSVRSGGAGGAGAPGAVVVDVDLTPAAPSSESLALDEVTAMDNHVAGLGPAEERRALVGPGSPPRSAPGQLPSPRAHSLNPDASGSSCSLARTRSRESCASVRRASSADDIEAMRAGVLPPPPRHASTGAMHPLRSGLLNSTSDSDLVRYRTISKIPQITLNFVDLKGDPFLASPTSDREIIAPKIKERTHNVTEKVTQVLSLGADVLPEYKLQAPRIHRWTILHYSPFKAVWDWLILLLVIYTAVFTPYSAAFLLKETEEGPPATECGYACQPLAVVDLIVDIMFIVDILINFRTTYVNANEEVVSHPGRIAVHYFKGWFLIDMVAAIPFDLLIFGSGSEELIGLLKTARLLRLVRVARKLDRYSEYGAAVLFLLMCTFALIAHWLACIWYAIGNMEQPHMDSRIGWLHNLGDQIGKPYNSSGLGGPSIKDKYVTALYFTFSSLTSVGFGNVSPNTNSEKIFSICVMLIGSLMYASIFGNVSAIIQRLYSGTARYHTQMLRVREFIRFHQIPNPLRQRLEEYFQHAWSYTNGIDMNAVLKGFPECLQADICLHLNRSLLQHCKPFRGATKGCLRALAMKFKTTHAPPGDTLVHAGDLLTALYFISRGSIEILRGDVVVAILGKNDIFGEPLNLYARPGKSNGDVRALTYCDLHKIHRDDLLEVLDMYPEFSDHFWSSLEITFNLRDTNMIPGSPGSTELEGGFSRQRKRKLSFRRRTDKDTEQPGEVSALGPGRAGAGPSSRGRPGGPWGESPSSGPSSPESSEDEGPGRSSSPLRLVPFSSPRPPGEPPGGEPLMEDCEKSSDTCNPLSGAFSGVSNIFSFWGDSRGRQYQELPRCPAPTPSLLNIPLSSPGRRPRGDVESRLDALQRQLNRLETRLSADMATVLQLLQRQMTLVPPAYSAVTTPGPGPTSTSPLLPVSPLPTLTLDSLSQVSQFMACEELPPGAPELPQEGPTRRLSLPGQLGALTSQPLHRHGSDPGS
In data set [5] the test system is Mycobacterium tuberculosis. Put plainly: microbe, parasite or virus in culture. The conditions noted are these: H37Rv.
Description: Antibacterial activity against Mycobacterium tuberculosis H37Rv assessed as inhibition of bacterial growth
The nature of data set [6]: Kinetic solubility of the compound. The conditions noted are these: read-out: Kinetic_solubility. It is filed as physicochemical.
Data set [7] deals with Mycobacterium tuberculosis. It is filed as functional, H37Rv. The note with it: dose 100 mg/kg; time 8 weeks.
Data set [8] concerns Mycobacterium tuberculosis. It is filed as functional, H37Rv. The note with it: dose 200 mg/kg; time 8 day.
Data set [9] in a line: Cytotoxicity against African green monkey Vero cells assessed as reduction in cell viability by MTT assay. It is filed as toxicity, cell-based. The conditions noted are these: chlorocebus sabaeus.
The nature of data set [10]: Inhibition of Mycobacterium tuberculosis ArgJ assessed as inhibition constant by measuring change in blue shift by ANS dye based displacement assay.
For data set [11], the system named is Mycobacterium tuberculosis. It is filed as functional, H37Rv. The conditions noted are these: dose 40 mg/kg; route po; time 24 day.
Data set [12] concerns Mycobacterium tuberculosis. Put plainly: Antibacterial activity against Mycobacterium tuberculosis Erdman in acute Mtb infection BALB/c mouse model assessed as reduction in log10 CFU at 35 mg/kg, ip for 8 days. It is filed as functional. The conditions noted are these: time 8 day.
The test system of data set [13] is Mycobacterium tuberculosis. It is filed as functional. The note with it: H37Rv, 336 h, time 14 day.
Data set [14] has as its system Mycobacterium tuberculosis. Briefly: Antibacterial activity against Mycobacterium tuberculosis in acute Mtb infection C57BL/6J mouse model assessed as reduction in log10 CFU in lungs at 350 mg/kg, po for 8 days. It is filed as functional. The note with it: time 8 day.
Data set [15] in a line: Solubility of the compound. It is filed as physicochemical.
Data set [16] is described as follows: Half life in Swiss-Webster mouse at 200 mg/kg, po via gavage measured after 4 hrs. It is filed as ADME, organism-based. The note with it: in vivo.
For data set [17], the system named is Mycobacterium tuberculosis. It is filed as functional, H37Rv. The conditions noted are these: dose 200 mg/kg; route po; time 8 weeks.
In data set [18] the test system is Mycobacterium tuberculosis. It is filed as functional, H37Rv. The note with it: dose 200 mg/kg; route po; time 2 weeks.
A short description of data set [19]: in vitro. The note with it: human, dermal fibroblasts.
Description: Cytotoxicity against human dermal fibroblasts assessed as cell growth inhibition treated for 48 hrs by resazurin dye based assay
Data set [20] is described as follows: physchem. The note with it: sodium phosphate buffer, pH 7.4.
The subject of data set [21] is HepG2. Put plainly: cells. The conditions noted are these: Homo sapiens, HepG2, 40 h.
Description: Cytotoxicity against human HepG2 cells treated for 40 hrs by Cell Titer Glo luminescence assay
A short description of data set [22]: Half life in mouse. It is filed as ADME, organism-based. The conditions noted are these: in vivo.
Data set [23] can be described thus: Inhibition of Mycobacterium tuberculosis ASADH expressed in Escherichia coli BL21.
For data set [24], the system named is Mycobacterium tuberculosis. It is filed as functional, H37Rv. The conditions noted are these: dose 25 mg/kg; route ig; time 3 weeks.
Data set [25] deals with HepG2. Briefly: Cytotoxicity against human HepG2 cells by MTT assay. It is filed as functional. (In general: Formazan colour is commonly taken as a measure of viable cells.)
A short description of data set [26]: Cytotoxicity against African green monkey Vero cells by MTT assay. It is filed as toxicity, cell-based. The note with it: chlorocebus sabaeus.
The test system of data set [27] is Mycobacterium tuberculosis. It is filed as functional, H37Rv. The conditions noted are these: dose 20-200 mg/kg; route po; time 4 weeks.
The test system of data set [28] is Mycobacterium tuberculosis. It is filed as functional. The note with it: H37Rv, 168 h, time 7 day.
Data set [29] is described as follows: Protein binding in human plasma incubated for 5 hrs by LC-MS/MS analysis. It is filed as ADME, cell-free. The note with it: read-out: PPB (converted).
The test system of data set [30] is Mycobacterium tuberculosis. It is filed as functional, H37Rv. The conditions noted are these: dose 100 mg/kg; route po; time 4 weeks.
The nature of data set [31]: Oral bioavailability in mouse. The note with it: in vivo. It is filed as ADME, organism-based.
For data set [32], the system named is Mycobacterium tuberculosis. It is filed as functional, H37Rv. The note with it: dose 300 mg/kg; time 8 day.
For data set [33], the system named is Mycobacterium tuberculosis. It is filed as functional. The conditions noted are these: H37Rv.
A short description of data set [34]: Aqueous solubility of compound in PBS at pH 7.4 incubated for 1 hr. It is filed as physicochemical.
The test system of data set [35] is Mycobacterium tuberculosis. It is filed as functional, H37Rv. The note with it: dose 100 mg/kg.
Data set [36] can be described thus: Inhibition of bacterial InhA expressed in Escherichia coli BL21 (DE3) incubated for 1 hr by […]. Also noted: species or system Bacteria.
In data set [37] the target is T1, Voltage-gated inwardly rectifying potassium channel KCNH2. Put plainly: Inhibition of hERG by Qpatch assay. It is filed as toxicity.

Take `CCCCS(=O)(=O)Nc1ccc2cnn(C)c2c1`: the solubility kinetic at 4.5 h in data set [1] worked out at 175 µM (≈ 46.8 µg/mL). Besides, in [2], the half-life is 10 min. Also, the values for the CC50 in [3] and in data set [9] were more than 100 µM and 170 µM, respectively. Also, the pIC50 in [4] is less than 4.30. Besides, the MIC in data set [5] amounted to 0.8 µM (≈ 0.214 µg/mL). In addition, the solubility kinetic in data set [6] was more than 550 µM. In addition, the Activity in data set [7] is on record as 2.4 log10CFU; in data set [8] it was 3.5 log10CFU.
On to `O=C(Nc1cccc2c(=O)cc(-c3nnn[nH]3)oc12)c1ccc(OCCCCc2ccccc2)cc1`, for which the pKi in data set [10] is 3.86. In data set [11], this compound showed an Activity of 0.5 log10CFU. Also, the MIC90 in data set [5] worked out at 10 µM (≈ 4.82 µg/mL).
As to `Cc1cc2oc(=O)cc(-c3cccc(N)c3)c2c(C)c1-c1ccc(CN2CCOCC2)cc1`, in data set [12], the Activity worked out at 2 log10CFU. In data set [13], the MIC99 was found to be 0.24 µM (≈ 0.106 µg/mL).
Consider `O=S1(=O)C[C@H](O)[C@@H](N2CCN(c3ccc(F)cc3Cl)CC2)C1`, for which the Activity in [14] is listed as 1.4 log10CFU. This compound had a CC50 in data set [3] of more than 100 µM. Besides, the MIC in data set [5] came out at 2.3 µM (≈ 0.802 µg/mL). The compound further had a solubility in data set [15] of 434 µM (≈ 151 µg/mL).
As to `CNC(=O)c1c(-c2ccc(O)cc2)oc2ccc(O)c(CN3CCCCC3)c12`, the half-life in [16] was 60 min. For the same compound, the Activity was determined as 1.9 log10CFU in data set [17] and 0.9 log10CFU in data set [18]. The compound also showed an MIC90 in [5] of 0.13 µM (≈ 0.0495 µg/mL). In [19], the CC50 at 48 h is more than 100 µM. The same compound had a solubility kinetic at 24 h in data set [20] of 74 µM (≈ 28.2 µg/mL).
In data set [21], `CCNC(=N)NC(=O)Nc1c(CC)cccc1CC` showed a CC50 of more than 30 µM. The compound further had a half-life in [22] of 402 min.
In turn, `O=C(Nc1nnc(C2CCCO2)o1)c1ccc([N+](=O)[O-])o1` (stereo unspecified) gave a pIC50 in data set [23] of 5.70. Moreover, the Activity in data set [24] is listed as 1.7 log10CFU. Moreover, the CC50 in [25] and in [26] was more than 218 µM throughout. Also, the MIC in data set [5] was 1.7 µM (≈ 0.5 µg/mL).
As for `Cc1n[nH]c2ccc(NS(=O)(=O)CCCCF)cc12`, the Activity is listed as more than 2 log10CFU in data set [27] and 2 log10CFU in [30]. In addition, the half-life in data set [2] is 28 min. Moreover, in [28], the MIC worked out at 0.2 µM (≈ 0.0571 µg/mL). This compound showed a negative logarithm of the IC50 (pIC50) in data set [4] of less than 4.30. In addition, in data set [29], the fraction unbound at 5 h is 0.23.
In turn, `Cc1csc([C@](C)(O)c2nnc(Nc3ccn(Cc4csc(C)n4)n3)s2)n1` had a half-life in data set [22] of 56 min. In [31], the bioavailability worked out at 92%. Moreover, the CC50 in data set [3] is more than 50 µM. Further, the Activity in data set [32] and in [35] was 3 log10CFU throughout. Also, the MIC90 in [33] turned out to be 0.2 µM (≈ 0.0839 µg/mL). For the same compound, the concentration in solution in [34] (solubility at 1 h) came to 413 µM (≈ 173 µg/mL). Also, the negative logarithm of the IC50 (pIC50) was 8.15 in [36] and less than 4.30 in data set [37].

For orientation: half-life means the time needed for the level to fall by half in the phase considered. By pIC50 is commonly meant the negative decadic logarithm of the IC50, by convention in mol/L. Usually pKi stands for the Ki on a negative log10 scale, so that one unit is a factor of ten. For orientation: MIC99 means an inhibitory concentration at the 99% level, which refers to growth in some studies and to a panel of isolates in others. The solubility is how much of the substance goes into solution per volume. By bioavailability is commonly meant the share of a dose that reaches the circulation, judged against a reference dose that is usually intravenous.
